Laboratory results as given in publication PMC12045974, “T cell toxicity induced by tigecycline binding to the mitochondrial ribosome” (Nature Communications, 2025).
Several values for one entry are separate records, joined by “and”; a condition that tells them apart may be missing. Equal entries are not always repeated.

Experiments:
HeLa cells = assay: Cell viability assay (CCK-8), HeLa cells; assay type: cell-based; details: Hela, in % (unit assumed)
Procedure: (§1) Cells were seeded in 96-well plates ranging from 2000 to 15,000 cells per well depending on different cell lines and treated with antibiotics in serial dilutions for 72 h (120 h for the preliminary assays) in a humidified incubator (37 °C, 5% CO2) in 100 μl medium (DMEM with 10% FBS, 2.05 mM L-glutamine (Sigma) for Hek293 and Hela; RPMI-1640 with 10% FBS, 2.05 mM L-glutamine (Sigma), and 55 μM 2-ME (Gibco) for Jurkat T cells and PBMCs). Based on preliminary tests, the number of cells per well was optimized to 2000 for Hela and Hek293, 6000 for Jurkat T cells, and 15,000 for PBMCs. The stocks of antibiotics were prepared by dissolving in DMSO. As control, the same amount of DMSO was added to the non-treated groups. Serial drug dilutions were prepared in the corresponding medium to provide a total of 9 concentrations up to 300 μM for tetracyclines and up to 900 μM for additional bacterial protein synthesis inhibitors. After drug treatment, 10% CCK-8 (Cell Counting Kit-8, Sigma Aldrich) (10 μl per well) of the total volume was added to the cells and incubated for 1–4 h depending on cell lines (1 h for Hela and Hek293; 3 h for Jurkat T cells; 4 h for PBMCs) before the evaluation of the effect of antibiotics on cell viability. […] Results were visually confirmed under the light microscope. Each treatment was performed in technical repeats. Dose-response curves were plotted, mean ± SEM was shown, and half maximal inhibitory concentration (IC50) values were calculated in GraphPad Prism.

Hek293 cells = assay: Cell viability assay (CCK-8), Hek293 cells; assay type: cell-based, human; details: in % (unit assumed)
Procedure: as §1

Jurkat T cells = assay: Cell viability assay (CCK-8), Jurkat T cells; assay type: cell-based, human; details: Jurkat, in % (unit assumed)
Procedure: as §1

PBMCs = assay: Cell viability assay (CCK-8), PBMCs; assay type: cell-based, human; details: PBMCs, 72 h, Fig. 1A, in % (unit assumed)
Procedure: as §1, with “Buffy coats were ordered from anonymous blood donors at […]. […] Cells” for “Cells”, “1-4” for “1–4”

[1] = 72 h, dose 0.0457247 μM, Fig. 1A
[2] = 72 h, dose 0.137174 μM, Fig. 1A

**Q.** For `C[C@H]1c2cccc(O)c2C(=O)C2=C(O)[C@]3(O)C(=O)C(C(N)=O)=C(O)[C@@H](N(C)C)[C@@H]3[C@@H](O)[C@@H]21` [DOX], which “cell vialibity normalized to Vehicle (DMSO)” value (from here on “cell vialibity normalized”) (HeLa cells; dose 0.137174 μM) is on record?
**A.** Its value is 99.8907.

**Q.** And the “cell vialibity normalized” value (HeLa cells; dose 0.411523 μM)?
**A.** Its value is 100.467 and 99.0837.

**Q.** And the “cell vialibity normalized” value (HeLa cells; dose 1.23457 μM)?
**A.** The value was 99.4691 and 99.9582.

**Q.** What about the “cell vialibity normalized” value (HeLa cells; dose 3.7037 μM) of the same compound?
**A.** The value was 100.07 and 93.5237.

**Q.** What about the “cell vialibity normalized” value (HeLa cells; dose 11.1111 μM) of the same compound?
**A.** The value was 94.9721 and 92.1866.

**Q.** And the “cell vialibity normalized” value (HeLa cells; dose 33.3333 μM)?
**A.** The value was 96.9079 and 96.5877.

**Q.** And the “cell vialibity normalized” value (HeLa cells; dose 100 μM)?
**A.** The value was 97.8134 and 89.7632.

**Q.** What about the “cell vialibity normalized” value (HeLa cells; dose 300 μM) of the same compound?
**A.** The value was 79.6379 and 78.468.

**Q.** And the “cell vialibity normalized” value (HeLa cells; dose 900 μM)?
**A.** Its value is 4.838 and 4.476.

**Q.** And the “cell vialibity normalized” value (Hek293 cells; HEK293, dose 0.137174 μM)?
**A.** Its value is 97.7577 and 100.716.

**Q.** And the “cell vialibity normalized” value (Hek293 cells; HEK293, dose 0.411523 μM)?
**A.** Its value is 94.3943 and 94.2074.

**Q.** And the “cell vialibity normalized” value (Hek293 cells; HEK293, dose 1.23457 μM)?
**A.** Its value is 85.067 and 89.3024.

**Q.** And the “cell vialibity normalized” value (Hek293 cells; HEK293, dose 3.7037 μM)?
**A.** Its value is 85.4718 and 85.9078.

**Q.** What about the “cell vialibity normalized” value (Hek293 cells; HEK293, dose 11.1111 μM) of the same compound?
**A.** The value was 79.6792 and 82.0461.

**Q.** What about the “cell vialibity normalized” value (Hek293 cells; HEK293, dose 33.3333 μM) of the same compound?
**A.** The value was 56.1352 and 52.9274.

**Q.** And the “cell vialibity normalized” value (Hek293 cells; HEK293, dose 100 μM)?
**A.** Its value is 25.8642 and 25.3348.

**Q.** What about the “cell vialibity normalized” value (Hek293 cells; HEK293, dose 300 μM) of the same compound?
**A.** The value was 21.3952 and 21.8001.

**Q.** What about the “cell vialibity normalized” value (Hek293 cells; HEK293, dose 900 μM) of the same compound?
**A.** Its value is 5.254 and 4.351.

**Q.** And the “cell vialibity normalized” value (Jurkat T cells; dose 0.137174 μM)?
**A.** Its value is 94.1176 and 108.66.

**Q.** What about the “cell vialibity normalized” value (Jurkat T cells; dose 0.411523 μM) of the same compound?
**A.** Its value is 95.2614 and 97.0588.

**Q.** What about the “cell vialibity normalized” value (Jurkat T cells; dose 1.23457 μM) of the same compound?
**A.** Its value is 97.7941 and 96.1601.

**Q.** And the “cell vialibity normalized” value (Jurkat T cells; dose 3.7037 μM)?
**A.** The value was 99.2647 and 106.127.

**Q.** And the “cell vialibity normalized” value (Jurkat T cells; dose 11.1111 μM)?
**A.** Its value is 82.9248 and 78.6765.

**Q.** And the “cell vialibity normalized” value (Jurkat T cells; dose 33.3333 μM)?
**A.** Its value is 10.049 and 10.3758.

**Q.** And the “cell vialibity normalized” value (Jurkat T cells; dose 100 μM)?
**A.** Its value is 2.696 and 3.35.

**Q.** For medocycline, which “cell vialibity normalized” value (PBMCs; dose 0.0457247 μM) is on record?
**A.** Its value is 99.3099 and 104.911 and 97.5874 and 111.701 and 85.5908.

**Q.** And the “cell vialibity normalized” value (PBMCs; dose 0.137174 μM)?
**A.** Its value is 96.2044 and 113.924 and 98.007 and 101.337 and 91.5168.

**Q.** What about the “cell vialibity normalized” value (PBMCs; dose 0.411523 μM) of the same compound?
**A.** Its value is 87.4466 and 108.341 and 104.406 and 103.147 and 93.157.

**Q.** And the “cell vialibity normalized” value (PBMCs; dose 1.23457 μM)?
**A.** The value was 87.9395 and 106.341 and 92.1504 and 97.7385 and 83.3333.

**Q.** And the “cell vialibity normalized” value (PBMCs; dose 3.7037 μM)?
**A.** Its value is 96.5495 and 93.5206 and 91.1364 and 95.1622 and 83.8095.

**Q.** And the “cell vialibity normalized” value (PBMCs; dose 11.1111 μM)?
**A.** The value was 80.6934 and 86.1279 and 92.0804 and 88.6726 and 85.0088.

**Q.** What about the “cell vialibity normalized” value (PBMCs; dose 33.3333 μM) of the same compound?
**A.** The value was 52.5961 and 55.9883 and 48.1294 and 49.4985 and 42.8924.

**Q.** What about the “cell vialibity normalized” value (PBMCs; dose 100 μM) of the same compound?
**A.** Its value is 27.933 and 27.6926 and 32.9196 and 27.237 and 25.2205.

**Q.** And the “cell vialibity normalized” value (PBMCs; dose 300 μM)?
**A.** The value was 19.208 and 32.8451 and 31.9056 and 30.1672 and 23.6508.

**Q.** What about the “cell vialibity normalized” value (Jurkat T cells; [1]) of the same compound?
**A.** Its value is 102.989 and 99.9557 and 109.669.

**Q.** What about the “cell vialibity normalized” value (Jurkat T cells; [2]) of the same compound?
**A.** Its value is 102.725 and 107.699 and 114.702.

**Q.** And the “cell vialibity normalized” value (Jurkat T cells; 72 h, dose 0.411523 μM, Fig. 1A)?
**A.** Its value is 103.253 and 102.434 and 102.384.

**Q.** What about the “cell vialibity normalized” value (Jurkat T cells; 72 h, dose 1.23457 μM, Fig. 1A) of the same compound?
**A.** Its value is 99.4725 and 91.8142 and 98.8083.

**Q.** What about the “cell vialibity normalized” value (Jurkat T cells; 72 h, dose 3.7037 μM, Fig. 1A) of the same compound?
**A.** Its value is 86.4176 and 91.8584 and 75.4404.

**Q.** What about the “cell vialibity normalized” value (Jurkat T cells; 72 h, dose 11.1111 μM, Fig. 1A) of the same compound?
**A.** The value was 52.967 and 57.0354 and 39.5078.

**Q.** What about the “cell vialibity normalized” value (Jurkat T cells; 72 h, dose 33.3333 μM, Fig. 1A) of the same compound?
**A.** The value was 13.8022 and 14.0708 and 21.114.

**Q.** And the “cell vialibity normalized” value (Jurkat T cells; 72 h, dose 100 μM, Fig. 1A)?
**A.** The value was 9.495 and 9.425 and 18.7824.

**Q.** And the “cell vialibity normalized” value (Jurkat T cells; 72 h, dose 300 μM, Fig. 1A)?
**A.** The value was 7.165 and 7.743 and 8.238.

**Q.** What does the source list for oxycycline?
**A.** cell vialibity normalized to Vehicle (DMSO) (PBMCs; dose 0.0457247 μM): 99.5117 and 100.066 and 89.1698 and 120.008 and 102.707; cell vialibity normalized to Vehicle (DMSO) (PBMCs; dose 0.137174 μM): 101.938 and 102.097 and 92.5408 and 113.339 and 130.667; cell vialibity normalized to Vehicle (DMSO) (PBMCs; dose 0.411523 μM): 93.1002 and 107.019 and 97.4538 and 111.081 and 113.453; cell vialibity normalized to Vehicle (DMSO) (PBMCs; dose 1.23457 μM): 93.4625 and 104.955 and 100.95 and 107.767 and 104.422; cell vialibity normalized to Vehicle (DMSO) (PBMCs; dose 3.7037 μM): 87.0825 and 89.8101 and 98.4579 and 106.835 and 106.22; cell vialibity normalized to Vehicle (DMSO) (PBMCs; dose 11.1111 μM): 86.2319 and 86.9364 and 102.905 and 107.27 and 113.598; cell vialibity normalized to Vehicle (DMSO) (PBMCs; dose 33.3333 μM): 84.2313 and 84.0462 and 91.6801 and 95.3397 and 99.442; cell vialibity normalized to Vehicle (DMSO) (Jurkat T cells; [1]): 95.9551 and 99.8266 and 111.591; cell vialibity normalized to Vehicle (DMSO) (Jurkat T cells; [2]): 122.921 and 100.043 and 106.21; cell vialibity normalized to Vehicle (DMSO) (Jurkat T cells; 72 h, dose 1.23457 μM, Fig. 1A): 104.27 and 99.6099 and 104.508; cell vialibity normalized to Vehicle (DMSO) (Jurkat T cells; 72 h, dose 3.7037 μM, Fig. 1A): 87.8652 and 92.4577 and 103.45; cell vialibity normalized to Vehicle (DMSO) (Jurkat T cells; 72 h, dose 11.1111 μM, Fig. 1A): 101.124 and 98.0061 and 123.919; cell vialibity normalized to Vehicle (DMSO) (Jurkat T cells; 72 h, dose 33.3333 μM, Fig. 1A): 92.809 and 101.734 and 114.305; cell vialibity normalized to Vehicle (DMSO) (Jurkat T cells; 72 h, dose 100 μM, Fig. 1A): 28.8764 and 25.2276 and 26.6329; cell vialibity normalized to Vehicle (DMSO) (Jurkat T cells; 72 h, dose 300 μM, Fig. 1A): 15.1685 and 10.4898 and 12.0515
